Measured values: US20200383985A1, “Inhibitors of Protease Activated Receptor-2” (Endosome Therapeutics, Inc., priority 2017, published 2020)
Like-named read-outs stand apart in the source and are kept apart here.

Legend:
Type in all cases: cell-based
human (h) PAR2 = target: T1, human (h) PAR2 (Homo sapiens, UniProt P55085); assay: IP1 accumulation assay in KNRK-hPAR2 cells; details: 100 nM 2F; 30 μM of antagonist; read-out: KNRK-PAR2 100 nM 2F: ND (inhibition of 2F at 30 μM of antagonist)
T1 construct: expressed in transfected cells; host or cells: KNRK cells (KNRK-hPAR2)
T1 sequence (P55085 26-397): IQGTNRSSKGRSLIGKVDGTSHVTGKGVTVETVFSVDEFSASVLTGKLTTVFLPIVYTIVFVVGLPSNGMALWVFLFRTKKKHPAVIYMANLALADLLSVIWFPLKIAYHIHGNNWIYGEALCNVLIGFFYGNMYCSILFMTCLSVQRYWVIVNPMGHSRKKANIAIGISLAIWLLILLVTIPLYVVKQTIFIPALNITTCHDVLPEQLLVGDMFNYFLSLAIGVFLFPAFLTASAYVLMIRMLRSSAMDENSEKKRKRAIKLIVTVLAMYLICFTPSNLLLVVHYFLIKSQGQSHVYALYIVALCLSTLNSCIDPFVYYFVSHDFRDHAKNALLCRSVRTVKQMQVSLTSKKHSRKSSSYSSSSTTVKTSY
Description: (§1) KNRK-hPAR2, KNRK or HT-29 cells were seeded at a density of 50×10^3 cells/well in a clear poly-d-lysine coated 96 well tissue culture plate. Following 24 h incubation at 37° C. and 5% CO2, media was removed and replaced with 80 μl IP1 stimulation buffer (10 mM HEPES, 1 mM CaCl2, 0.5 mM MgCl2, 4.2 mM KCl, 146 mM NaCl, 5.5 mM glucose, 50 mM LiCl). Following stimulation buffer addition, the wells received 10 μl of 10× antagonists or DMSO vehicle. All plates were further incubated at 37° C., 5% CO2 for 30 min. 10 μl of 2F or ATP was added to the plates and further incubated for 40 min. Following incubation, stimulation buffer was quickly removed by aspiration and replaced with 25 μl lysis buffer (IP-One HTRF® assay kit, Cisbio). Following incubation of the lysates at 37° C., 5% CO2 for 10′, 10 μl lysate was transferred to a 384-well OptiPlate (PerkinElmer) and detected using the IP-One HTRF® assay kit (Cisbio).
(§2) Compounds of the invention (added at 10×concentrations in a 10 μL volume) were incubated for 30 min prior to the addition of 10 μM ATP or 100 nM or 300 nM PAR2 agonist (2F; EC80, added at 10×concentrations in a 10 μL volume) and then further incubated for 40 min. After lysis, the inositol phosphate 1 was quantified with IP-One HTRF® assay kit, Cisbio. The data was analysed with Prism, GraphPad to calculate the IC50 values, shown below in Table 1.
(§3) Inhibition of PAR2 signaling with known PAR2 inhibitor I-343 (FIG. 14A) was investigated in HT-29 cells and HEK293 cells, which express endogenous PAR2, and in KNRK cells expressing human (h) PAR2. Accumulation of inositol phosphate-1 (IP1) was measured in response to the PAR2-selective agonist 2-Furoyl-LIGRLO-NH2 (2F), an analogue of the trypsin-exposed tethered ligand, or trypsin.
(§4) KNRK-hPAR2, KNRK, HEK293, or HT-29 cells were seeded at a density of 50×10^3 cells/well onto clear 96-well plates (PerkinElmer). After 24 h of culture, medium was replaced with IP1 stimulation buffer (10 mM HEPES, 1 mM CaCl2, 0.5 mM MgCl2, 4.2 mM KCl, 146 mM NaCl, 5.5 mM glucose, 50 mM LiCl; 37° C., 5% CO2.). Cells were pre-incubated with the antagonist or vehicle for 30 min prior to the addition of agonist. Cells were then further incubated for 40 min. Stimulation buffer was […]

mouse DRG neurons [1] = assay: Patch clamp rheobase of DRG neurons: protease-induced hyperexcitability of nociceptors
PAR2 = target: T2, PAR2 (Homo sapiens, UniProt P55085); assay: IP1 accumulation assay in HT-29 cells (endogenous PAR2); details: 2F (300 nM)-induced IP1, HT-29 cells
T2 construct: HT-29 cells and HEK293 cells, which express endogenous PAR2; endogenous in cells; host or cells: HT-29
T2 sequence (P55085 26-397): T1 sequence (P55085 26-397)
Description: as §1, §2, §3, §4

mouse DRG neurons [2] = assay: Patch clamp rheobase of DRG neurons: IBS-D biopsy supernatant-induced hyperexcitability
Description: An investigation as whether proteases from mucosal biopsies of IBS patients cause a persistent hyperexcitability of nociceptors was conducted by a mechanism that entails endosomal signaling of PAR2. Biopsies of colonic mucosa from patients with diarrhea-predominant IBS (IBS-D) or healthy control (HC) subjects were placed in culture medium (24 h, 37° C.). Mouse DRG neurons were then exposed to biopsy supernatants (30 min, 37° C.) and washed. Rheobase was measured 30 min after washing to assess persistent hyperexcitability. Supernatants of biopsies from IBS-D patients caused a persistent decrease in rheobase, consistent with hyperexcitability, when compared to supernatants from HC subjects (rheobase at 30 min: HC, 78.33±4.41 pA, 12 neurons, supernatant from 4 HC; IBS-D, 54.55±4.74 pA, 11 neurons, supernatant from 4 IBS-D; P<0.05; ANOVA, Tukey's multiple comparisons test) (FIG. 6A, B). I-343 (10 μM), Dy4 (dynamin inhibitor, 30 μM) and PD98059 (MEK1 inhibitor, 50 μM) abolished IBS-D-induced hyperexcitability of nociceptors (FIG. 6A-D).
The Queen's University Human Ethics Committee approved human studies. All subjects gave informed consent. Endoscopic biopsies were obtained from the descending colon of 13 adult IBS-D patients (12 female) diagnosed using ROME III criteria for diarrhea predominant IBS and of 12 health controls. All IBS patients had symptoms greater than 1 year and most were greater than 5 years. Celiac disease was excluded by blood test and patients over 40 years with daily diarrhea were biopsied at the time of colonoscopy to exclude microscopic colitis. […] Biopsies (8 samples per patient) were incubated in 250 μl of RPMI medium containing 10% fetal calf serum, penicillin/streptomycin and gentamicin/amphotericin B (95% O2/5% […], 24 h, 37° C.). Supernatants were stored at −80° C. Supernatants from 4-6 patients were pooled and studied in individual experiments.
DRG innervating the colon (T9-T13) were collected from C57BL/6 mice. Ganglia were digested by incubation in collagenase IV (1 mg/ml, Worthington) and dispase (4 mg/ml, Roche) (10 min, 37° C.). DRG were triturated with a fire-polished Pasteur pipette, and further digested (5 min, 37° C.). Neurons were washed, plated onto laminin- (0.017 mg/ml) and poly-D-lysine- (2 mg/ml) coated glass coverslips, and were maintained in F12 medium containing 10% fetal calf serum, penicillin and streptomycin (95% air, 5% CO2, 16 h, 37° C.) until retrieval for electrophysiological studies.
Small-diameter (<30 pF capacitance) neurons were studied because they display characteristics of nociceptors (Valdez-Morales E. E. et al., Am J Gastroenterol 2013, 108(10): 1634-1643). Changes in excitability were quantified by measuring rheobase. Whole-cell perforated patch-clamp recordings were made using Amphotericin B (240 μg/ml, Sigma Aldrich) in current clamp mode at room temperature. The recording chamber was perfused with external solution at 2 ml/min. Recordings were made using Multiclamp 700B or Axopatch 200B amplifiers, digitized by Digidata 1440A or 1322A, and processed using pClamp 10.1 software (Molecular Devices). Solutions had the composition (mM): pipette—K-gluconate 110, KC130, HEPES 10, MgCl2 1, CaCl2 2; pH 7.25 with 1 M KOH; external—NaCl 140, KCl 5 HEPES 10, glucose 10, MgCl2 1, CaCl2 2; pH to 7.3-7.4 with 3 M NaOH. […] Neurons were also preincubated with trypsin (50 nM, 10 min), NE (390 nM, 30 min), CS (500 nM, 60 min), or vehicle (37° C.), and washed. Rheobase was measured at T 0 or T 30 min after washing. To investigate mechanisms of protease-evoked effects, neurons were incubated with I-343 (100 nM, 300 nM, 10 μM, 30 min preincubation), SCH79797 (1 μM, 10 min), Dy4 (30 μM, 30 min), PS2 (15 μM, 30 min), PD98059 (50 μM, 30 min), GF109203X (10 μM, 30 min), or vehicle (preincubation and inclusion throughout). In experiments using the tripartite antagonist, neurons were preincubated with Compound 10 (30 μM, 60 min, 37° C.) or vehicle and washed. […]

CC(C)CCCC(C)[C@H]1CCC2C3CCC4C[C@@H](OC(=O)CC(NC(=O)CCOCCOCCOCCOCCOCCOCCOCCOCCOCCOCCOCCOCCNC(=O)Cn5cc(C(=O)N6CCN(C(=O)c7cn8nc(-c9ccc(F)cc9)cc(C(C)(C)C)c8n7)C(C)(C)C6)nn5)C(N)=O)CC[C@]4(C)C3CC[C@@]21C (stereo in doubt) [Compound 10, (3S,10S,13R,17R)-10,13-dimethyl-17-((R)-6-methylheptan-2-yl)hexadecahydro-1H-cyclopenta[a]phenanthren-3-yl (44S)-1-(4-(4-(8-(tert-butyl)-6-(4-fluorophenyl)imidazo[1,2-b]pyridazine-2-carbonyl)-3,3-dimethylpiperazine-1-carbonyl)-1H-1,2,3-triazol-1-yl)-44-carbamoyl-2,42-dioxo-6,9,12,15,18,21,24,27,30,33,36,39-dodecaoxa-3,43-diazahexatetracontan-46-oate]
inhibition at 30 µM (human (h) PAR2): < 50% | baseline rheobase (mouse DRG neurons [1]): no effect | initial excitability at 0 min after trypsin (mouse DRG neurons [1]): did not affect | persistent response at 30 min after trypsin (mouse DRG neurons [1]): prevented | IC50 (PAR2; read-out: HT-29 300 nM 2F (IC50)): 670 nM | IC50 (PAR2; read-out: HT-29 300 nM 2F pIC50 ± SEM (converted)): 661 nM | excitability of neurons treated with HC supernatant (mouse DRG neurons [2]): did not affect | rheobase at 30 min, IBS-D supernatant (mouse DRG neurons [2]): 64.7±3.84 pA | persistent actions of IBS-D supernatant on nociceptor excitability (mouse DRG neurons [2]; 30 μM, 60 min preincubation, washed): completely prevented
